Nine compounds from patent US20110065632A1, “PHARMACEUTICAL COMPOSITIONS OF SOMATOSTATIN-DOPAMINE CONJUGATES” (priority 2008, published 2011) can be followed below.

In one assay the target is hDA2. Briefly: Dopamine-2 receptor radioligand binding assay. On the set-up: species or system human. The note with it: [3H]spiperone. How it is done:
Specificity and selectivity for the dopamine-2 receptor of the dopamine analogues used to synthesize the somatostatin-dopamine chimers may be determined by a radioligand binding assay as follows.
Crude membranes were prepared by homogenization of frozen rat corpus striatum (Zivic Laboratories, Pittsburgh, Pa., USA) in 20 mL of ice-cold 50 mM Tris-HCl with a Brinkman Polytron cell disrupter (setting 6, 15 sec). Buffer was added to obtain a final volume of 40 mL, and the homogenate was centrifuged in a Sorval SS-34 rotor at 39,000 g for 10 minutes at 0-4° C. The resulting supernatant was decanted and discarded. The pellet was rehomogenized in ice-cold buffer, pre-incubated at 37° C. for 10 min, diluted, and centrifuged as before. The final pellet was resuspended in buffer and held on ice for the receptor binding assay.
For assay, aliquots of the washed membrane preparations and test compounds were incubated for 15 minutes (37° C.) with 0.25 nM [^3HI]spiperone (16.5 Ci.mmol, New England Nuclear, Boston, Mass., USA) in 50 mM Tris HCl, 120 mM NaCl, 5 mM KCl, 2 mM CaCl2, 1 mM MgCl2. The final assay volume was 1.0 mL. The incubations were terminated by rapid filtration through GF/B glass fibre filters using a Brandel filtration manifold. Each tube and filter was then washed three times with 5-mL aliquots of ice-cold buffer. Specific binding was defined as the total radioligand bound minus that bound in the presence of 1000 nM (+) butaclamol.
(§1) Using the discussed assays, the inhibition constants (Ki) for the five human somatostatin receptors (hSSTR1-hSSTR5) and the dopamine-2 receptor (hUTII and hDA2) were measured for the exemplified somatostatin-dopamine conjugates, as follows: […]

A further assay addresses T1, hsst1 (Homo sapiens, UniProt P30872).
T1 construct: expressed in transfected cells
Briefly: Somatostatin receptor radioligand binding assay, hsst1. On the procedure: (§2) Specificity and selectivity of the somatostatin analogues used to synthesize the somatostatin-dopamine chimers were determined by a radioligand binding assay on CHO-K1 cells stably transfected with each of the SSTR subtypes, as follows. Somatostatin analogs are also described in U.S. Patent Application Publication No. 02210006790. The complete coding sequences of genomic fragments of the SSTR 1 (e.g., Genbank accession No. M81829), SSTR 2 (e.g., Genbank accession No. M81830), SSTR 3 (e.g., Genbank accession No. L07062), and SSTR 4 (e.g., Genbank accession No. AL049651) genes and a cDNA clone for SSTR 5 (e.g., Genbank accession No. D16827) was subcloned into the mammalian expression vector pCMV (Life Technologies, Milano, Italy). Other SSTR sequences are known to the skilled artisan. Clonal cell lines stably expressing SSTR's 1-5 were obtained by transfection into CHO-K1 cells (ATCC, Manassas, Va., USA) using the calcium phosphate co-precipitation method (Davis L, et al., 1994 In: Basic methods in Molecular Biology, 2nd edition, Appleton & Lange, Norwalk, Conn., USA: 611-646). The plasmid pRSV-neo (ATCC) was included as a selectable marker. Clonal cell lines were selected in RPMI 1640 media containing 0.5 mg/mL of G418 (Life Technologies, Milano, Italy), ring cloned, and expanded into culture.
(§3) Membranes for in vitro receptor binding assays were obtained by homogenizing the CHO-K1 cells expressing the SSTR's subtypes in ice-cold 50 mM Tris-HCl and centrifuging twice at 39,000 g (10 min), with an intermediate resuspension in fresh buffer. The final pellets were resuspended in 10 mM Tris-HCl for assay.
(§4) For the SSTR 1, 3, 4, and 5 assays, aliquots of the membrane preparations were incubated 90 minutes at 25° C. with 0.05 nM [^125I-Tyr11]SS-14 in 50 mM HEPES (pH 7.4) containing 10 mg/mL BSA, 5 mM MgCl2, 200 KIU/mL Trasylol, 0.02 mg/mL bacitracin, and 0.02 mg/mL phenylmethylsuphonyl fluoride. The final assay volume was 0.3 mL.
(§5) For the SSTR 2 assay, 0.05 nM [^125I]MK-678 was employed as the radioligand and the incubation time was 90 minutes at 25° C. The incubations were terminated by rapid filtration through GF/C glass microfiber filters (Whatman Co.) (pre-soaked in 0.3% polyethylenimine) using a BRANDEL filtration manifold. Each tube and filter was washed three times with 5 mL aliquots of ice-cold buffer. Specific binding was defined as the total radioligand bound minus that bound in the presence of 1000 nM SS-14 for SSTR 1, 3, 4, and 5, or 1000 nM MK-678 for SSTR2.
as §1

For a further assay, the target named is T2, hsst2 (Homo sapiens, UniProt P30874).
T2 construct: expressed in transfected cells
Briefly: Somatostatin receptor radioligand binding assay, hsst2. The note with it: CHO-K1 membranes, [125I]MK-678; read-out: hsst2 Ki. On the procedure: as §2, §3, §5

The target of the next assay is T3, hsst5 (Homo sapiens, UniProt P35346).
T3 construct: expressed in transfected cells
Briefly: Somatostatin receptor radioligand binding assay, hsst5. The note with it: CHO-K1 membranes, [125I-Tyr11]SS-14. On the procedure:
as §2, §3, §4, §5

For a further assay, the target named is T4, hUTII (Homo sapiens, UniProt Q9UKP6).
T4 sequence (Q9UKP6 1-389): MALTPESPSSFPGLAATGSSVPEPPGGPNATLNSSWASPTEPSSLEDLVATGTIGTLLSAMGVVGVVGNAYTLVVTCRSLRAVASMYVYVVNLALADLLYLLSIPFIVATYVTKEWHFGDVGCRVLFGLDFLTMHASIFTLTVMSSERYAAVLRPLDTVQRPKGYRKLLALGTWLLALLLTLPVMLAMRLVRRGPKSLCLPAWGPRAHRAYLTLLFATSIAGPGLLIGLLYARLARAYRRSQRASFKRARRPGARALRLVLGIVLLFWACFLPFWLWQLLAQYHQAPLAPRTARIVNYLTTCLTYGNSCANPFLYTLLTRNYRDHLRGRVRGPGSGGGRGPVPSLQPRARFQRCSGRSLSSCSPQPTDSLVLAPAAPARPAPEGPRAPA
The assay can be described thus: hUTII inhibition constant. The assay is classed as binding. The note with it: read-out: hUTII Ki. On the procedure:
as §1

The next assay addresses T5, hsst3 (Homo sapiens, UniProt P32745).
T5 construct: expressed in transfected cells
The assay can be described thus: Somatostatin receptor radioligand binding assay, hsst3. How it is done:
as §2, §3, §4, §5, §1

[1] abbreviates: CHO-K1 membranes, [125I-Tyr11]SS-14, read-out: hsst1 Ki.
The mark [2] stands for this setting: CHO-K1 membranes, [125I-Tyr11]SS-14, read-out: hsst3 Ki.

Read-outs that look alike come from different tables or passages of the source. Numbered stars: 1 amine (or outer) side, 2 acyl side, 3 side chain; on linkers, the order of the positions; unused ones are H or OH. Bridge positions count the residues as written; N and C are the ends. Square brackets hold non-standard residues; d marks the D form. Peptide text beside a SMILES is read from it. * marks the point of attachment. X3 = CCCN1C[C@H](CSCC(=O)Oc2ccc(C[C@H](N[*:1])C(=O)[*:2])cc2I)C[C@@H]2c3cccc4[nH]cc(c34)C[C@H]21; X1 = CCCN1C[C@H](CSCC(=O)*)C[C@@H]2c3cccc4[nH]cc(c34)C[C@H]21; AEEA = NCCOCCOCC(=O)O

T5 sequence (P32745 whole entry): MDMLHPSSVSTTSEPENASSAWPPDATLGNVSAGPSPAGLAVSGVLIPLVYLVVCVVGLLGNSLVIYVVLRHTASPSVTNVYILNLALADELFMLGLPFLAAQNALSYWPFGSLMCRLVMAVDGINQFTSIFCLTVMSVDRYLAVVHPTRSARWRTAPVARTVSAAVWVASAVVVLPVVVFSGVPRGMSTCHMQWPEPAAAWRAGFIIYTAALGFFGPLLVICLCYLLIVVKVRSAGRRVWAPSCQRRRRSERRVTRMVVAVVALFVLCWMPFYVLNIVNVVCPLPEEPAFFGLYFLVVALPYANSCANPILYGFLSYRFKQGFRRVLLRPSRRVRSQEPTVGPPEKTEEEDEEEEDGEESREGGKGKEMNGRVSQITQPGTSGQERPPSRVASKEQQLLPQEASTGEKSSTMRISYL
T2 sequence (P30874 whole entry): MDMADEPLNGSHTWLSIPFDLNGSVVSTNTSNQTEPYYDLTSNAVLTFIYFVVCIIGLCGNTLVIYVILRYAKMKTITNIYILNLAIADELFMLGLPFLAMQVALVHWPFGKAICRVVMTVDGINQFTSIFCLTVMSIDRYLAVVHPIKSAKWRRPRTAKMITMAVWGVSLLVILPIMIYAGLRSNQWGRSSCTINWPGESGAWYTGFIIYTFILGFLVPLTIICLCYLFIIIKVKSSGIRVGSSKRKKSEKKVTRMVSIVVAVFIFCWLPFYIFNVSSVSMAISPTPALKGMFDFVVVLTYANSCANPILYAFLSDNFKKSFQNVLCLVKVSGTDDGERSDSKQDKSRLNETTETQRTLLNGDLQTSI
T3 sequence (P35346 whole entry): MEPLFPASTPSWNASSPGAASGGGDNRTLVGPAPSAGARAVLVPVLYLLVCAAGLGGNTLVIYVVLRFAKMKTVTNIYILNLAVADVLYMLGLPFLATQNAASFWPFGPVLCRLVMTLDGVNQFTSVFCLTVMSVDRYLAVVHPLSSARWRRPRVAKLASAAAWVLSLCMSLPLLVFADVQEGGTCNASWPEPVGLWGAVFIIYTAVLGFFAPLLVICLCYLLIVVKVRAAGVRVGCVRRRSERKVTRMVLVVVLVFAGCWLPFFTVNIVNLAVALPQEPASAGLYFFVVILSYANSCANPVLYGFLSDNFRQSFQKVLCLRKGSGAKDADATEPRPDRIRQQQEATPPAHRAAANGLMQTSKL
T1 sequence (P30872 whole entry): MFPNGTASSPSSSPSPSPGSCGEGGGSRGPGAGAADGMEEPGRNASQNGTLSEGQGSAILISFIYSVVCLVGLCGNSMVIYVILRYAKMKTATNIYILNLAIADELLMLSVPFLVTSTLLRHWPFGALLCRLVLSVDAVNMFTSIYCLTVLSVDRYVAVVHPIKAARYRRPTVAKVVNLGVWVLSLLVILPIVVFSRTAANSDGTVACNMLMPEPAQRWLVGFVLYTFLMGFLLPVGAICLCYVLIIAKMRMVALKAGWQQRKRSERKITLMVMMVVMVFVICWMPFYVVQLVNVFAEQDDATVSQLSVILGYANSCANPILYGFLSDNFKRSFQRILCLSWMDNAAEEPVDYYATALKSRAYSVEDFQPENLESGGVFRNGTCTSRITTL

For `CCCN1C[C@H](CSCC(=O)N[C@H](Cc2ccccc2)C(=O)NCCOCCOCC(=O)N[C@H](Cc2ccccc2)C(=O)N[C@H]2CSSC[C@@H](C(=O)N[C@H](C(N)=O)[C@@H](C)O)NC(=O)[C@H](C(C)C)NC(=O)[C@H](CCCCN)NC(=O)[C@@H](Cc3c[nH]c4ccccc34)NC(=O)[C@H](Cc3ccc(OC(=O)CSC[C@@H]4C[C@@H]5c6cccc7[nH]cc(c67)C[C@H]5N(CCC)C4)c(I)c3)NC2=O)C[C@@H]2c3cccc4[nH]cc(c34)C[C@H]21` [Example 5] (X1-[dF][AEEA][dF]C[X3][dW]KVCT-NH2; disulfide 4-9), the Ki on hDA2 came out at 15.5 nM; on hsst1 (setting [1]), 1000 nM; at hsst2 it was 1.65 nM; at hsst5 (read-out: hsst5 Ki) it was 27.6 nM; on hUTII, 105 nM; on hsst3 (setting [2]), 1050 nM.
In the case of `C=CCN1C[C@H](C(=O)N(CCCN(C)CC(=O)N[C@H](Cc2ccccc2)C(=O)N[C@H]2CSSC[C@@H](C(=O)N[C@H](C(N)=O)[C@@H](C)O)NC(=O)[C@H](CC)NC(=O)[C@H](CCCCN)NC(=O)[C@@H](Cc3c[nH]c4ccccc34)NC(=O)[C@H](Cc3ccc(O)cc3)NC2=O)C(=O)NCC)C[C@@H]2c3cccc4[nH]cc(c34)C[C@H]21` [Example 6], the inhibition constant Ki is 65 nM on hDA2; 509 nM on hsst1 (setting [1]); 0.51 nM on hsst2; 56.5 nM on hsst5 (read-out: hsst5 Ki); 677 nM on hUTII; 798 nM on hsst3 (setting [2]).
`CCNC(=O)N(CCCN(C)CC(=O)N[C@H](Cc1ccccc1)C(=O)N[C@H]1CSSC[C@@H](C(=O)N[C@H](C(N)=O)[C@@H](C)O)NC(=O)[C@H](CC)NC(=O)[C@H](CCCCN)NC(=O)[C@@H](Cc2c[nH]c3ccccc23)NC(=O)[C@H](Cc2ccc(O)cc2)NC1=O)C(=O)[C@H]1CN[C@@H]2Cc3c[nH]c4cccc(c34)[C@H]2C1` [Example 7]: the Ki stood at 193 nM on hDA2; 345 nM on hsst1 (setting [1]); 0.19 nM at hsst2; 28.6 nM on hsst5 (read-out: hsst5 Ki); 695 nM on hUTII; 267 nM on hsst3 (setting [2]).
For the compound `CCCN1C[C@H](CSCC(=O)NCCOCCOCC(=O)N[C@H](Cc2ccccc2)C(=O)N[C@H]2CSSC[C@@H](C(=O)N[C@H](C(N)=O)[C@@H](C)O)NC(=O)[C@H](CC)NC(=O)[C@H](CCCCN)NC(=O)[C@@H](Cc3c[nH]c4ccccc34)NC(=O)[C@H](Cc3ccc(O)cc3)NC2=O)C[C@@H]2c3cccc4[nH]cc(c34)C[C@H]21` [Example 8], the Ki at hDA2 was 86 nM; on hsst1 (setting [1]) it was 1550 nM; at hsst2, 0.11 nM; at hsst5 (read-out: hsst5 Ki), 24.5 nM; at hUTII, 167 nM; on hsst3 (setting [2]), 126 nM.
As for `CCCN1C[C@H](CSCC(=O)NCCCC[C@H](NC(=O)CSC[C@@H]2C[C@@H]3c4cccc5[nH]cc(c45)C[C@H]3N(CCC)C2)C(=O)N[C@H]2CSSC[C@@H](C(=O)N[C@H](C(N)=O)[C@@H](C)O)NC(=O)[C@H](CC)NC(=O)[C@H](CCCCN)NC(=O)[C@@H](Cc3c[nH]c4ccccc34)NC(=O)[C@H](Cc3ccc(O)cc3)NC2=O)C[C@@H]2c3cccc4[nH]cc(c34)C[C@H]21` [Example 9], the Ki was determined as 8.3 nM at hDA2; 273 nM at hsst1; 0.54 nM on hsst2; 99.5 nM at hsst5 (hsst5 Ki); 635 nM at hUTII; 536 nM at hsst3.
As for `CCCN1C[C@H](CSCC(=O)N[C@H](Cc2ccccc2)C(=O)N[C@H]2CSSC[C@@H](C(=O)N[C@H](C(N)=O)[C@@H](C)O)NC(=O)[C@H]([C@@H](C)O)NC(=O)[C@H](CCCCN)NC(=O)[C@@H](Cc3c[nH]c4ccccc34)NC(=O)[C@H](Cc3ccc(O)c(I)c3)NC2=O)C[C@@H]2c3cccc4[nH]cc(c34)C[C@H]21` [Example 12], the inhibition constant (Ki) was 25.2 nM on hDA2; 602 nM at hsst1 (setting [1]); 4.1 nM at hsst5 (read-out: hsst5 Ki); 676 nM on hUTII; 51.5 nM at hsst3 (setting [2]).
As for `CCCN1C[C@H](CSCC(=O)NCCCC[C@@H](NC(=O)CSC[C@@H]2C[C@@H]3c4cccc5[nH]cc(c45)C[C@H]3N(CCC)C2)C(=O)N[C@H](Cc2ccccc2)C(=O)N[C@H]2CSSC[C@@H](C(=O)N[C@H](C(N)=O)[C@@H](C)O)NC(=O)[C@H]([C@@H](C)O)NC(=O)[C@H](CCCCN)NC(=O)[C@@H](Cc3c[nH]c4ccccc34)NC(=O)[C@H](Cc3ccc(O)c(I)c3)NC2=O)C[C@@H]2c3cccc4[nH]cc(c34)C[C@H]21` [Example 13], the Ki came out at 15.2 nM on hDA2, 907 nM at hsst1 (setting [1]), 10.7 nM at hsst5 (read-out: hsst5 Ki) and 196 nM at hsst3 (setting [2]).
Consider `CCCN1C[C@H](CSCC(=O)NCCCC[C@@H](NC(C)=O)C(=O)N[C@H](Cc2ccccc2)C(=O)N[C@H]2CSSC[C@@H](C(=O)N[C@H](C(N)=O)[C@@H](C)O)NC(=O)[C@H]([C@@H](C)O)NC(=O)[C@H](CCCCN)NC(=O)[C@@H](Cc3c[nH]c4ccccc34)NC(=O)[C@H](Cc3ccc(O)c(I)c3)NC2=O)C[C@@H]2c3cccc4[nH]cc(c34)C[C@H]21` [Example 14], for which the Ki is 44.3 nM at hDA2; 1340 nM on hsst1 (setting [1]); 2.68 nM on hsst5 (read-out: hsst5 Ki); 1510 nM on hUTII; 70.3 nM at hsst3 (setting [2]).
In the case of `CCCN1C[C@H](CSCC(=O)N[C@H](Cc2ccccc2)C(=O)N[C@H]2CSSC[C@@H](C(=O)N[C@H](C(N)=O)[C@@H](C)O)NC(=O)[C@H](C(C)C)NC(=O)[C@H](CCCCN)NC(=O)[C@@H](Cc3c[nH]c4ccccc34)NC(=O)[C@H](Cc3ccc(O)c(I)c3)NC2=O)C[C@@H]2c3cccc4[nH]cc(c34)C[C@H]21` [Example 26], the Ki on hDA2 was found to be 34 nM; on hsst1 (setting [1]), 731 nM; on hsst2, 0.4 nM; on hUTII it was 53.2 nM; on hsst3 (setting [2]), 135 nM.

As usually defined, the Ki is a measure of affinity in units of concentration, obtained from inhibition or displacement.
